These results are taken from the PolyMetriX glass transition set.

Molecule `*C(=O)c1ccc(Oc2ccc(C3(c4ccc(Oc5ccc(C(=O)c6ccc7c(c6)C(=O)N(c6ccc(Cc8ccc(N9C(=O)c%10ccc(*)cc%10C9=O)cc8)cc6)C7=O)cc5)cc4)OC(=O)c4ccccc43)cc2)cc1` (repeat unit) came in with a glass transition temperature of 268.00 °C.
The value for `*C(=O)c1ccc2nc(-c3ccc(-c4nc5ccc(*)cc5nc4-c4ccccc4)cc3)c(-c3ccccc3)nc2c1` (repeat unit) was 325.00 °C; that for `*C(=O)c1ccc2nc(-c3ccccc3)c(-c3ccc(N4C(=O)c5ccc(C(=O)c6ccc7c(c6)C(=O)N(c6ccc(-c8nc9cc(*)ccc9nc8-c8ccccc8)cc6)C7=O)cc5C4=O)cc3)nc2c1` (repeat unit) was 255.00 °C.
`*CCCCCCNC(=O)/C=C(\C)C(=O)N*` (repeat unit) showed a glass transition temperature of 94.00 °C.
In turn, `*Oc1ccc(/C(=N/c2ccc(/N=C(\c3ccccc3)c3ccc(Oc4ccc(C(C)(C)c5ccc(*)cc5)cc4)cc3)cc2)c2ccccc2)cc1` (repeat unit) showed a glass transition temperature of 161.00 °C.
The value for `*Oc1ccc(/C=N/c2ccc(/N=C/c3ccc(Oc4ccc(C(c5ccccc5)(c5ccccc5)c5ccc(*)cc5)cc4)cc3)cc2)cc1` (repeat unit) was 230.00 °C; that for `*Oc1ccc(/N=C/c2ccc(Oc3ccc(C(C)(C)c4ccc(Oc5ccc(/C=N/c6ccc(Oc7ccc(-c8ccc(*)cc8)cc7)cc6)cc5)cc4)cc3)cc2)cc1` (repeat unit) was 120.00 °C; that for `*Oc1ccc(/N=C/c2ccc(Oc3ccc(C(c4ccc(Oc5ccc(/C=N/c6ccc(Oc7ccc(-c8ccc(*)cc8)cc7)cc6)cc5)cc4)(C(F)(F)F)C(F)(F)F)cc3)cc2)cc1` (repeat unit) was 128.00 °C.
For `*Oc1ccc(/N=C/c2ccc(Oc3ccc(C(c4ccccc4)(c4ccccc4)c4ccc(Oc5ccc(/C=N/c6ccc(*)cc6)cc5)cc4)cc3)cc2)cc1` (repeat unit), the glass transition temperature turned out to be 211.00 °C.
`*Oc1ccc(/N=N/c2ccc(Oc3ccc(C(C)(C)c4ccc(*)cc4)cc3)cc2)cc1` (repeat unit) returned a glass transition temperature of 175.00 °C.
The result for `*Oc1ccc(C(C)(C)c2ccc(Oc3ccc(C(=O)Nc4ccc(-c5ccc(NC(=O)c6ccc(*)cc6)cc5C(F)(F)F)c(C(F)(F)F)c4)cc3)cc2)cc1` (repeat unit) reads 250.00 °C.
The result for `*Oc1ccc(C(C)(C)c2ccc(Oc3ccc(C(=O)Nc4cccc(NC(=O)c5ccc(*)cc5)c4)cc3)cc2)cc1` (repeat unit) reads 214.00 °C; that for `*Oc1ccc(C(C)(C)c2ccc(Oc3ccc(C(=O)c4c(C(=O)c5ccc(*)cc5)c(-c5ccc(F)cc5)c(-c5ccc(F)cc5)c(-c5ccc(F)cc5)c4-c4ccc(F)cc4)cc3)cc2)cc1` (repeat unit), 252.00 °C; that for `*Oc1ccc(C(C)(C)c2ccc(Oc3ccc(C(=O)c4ccc(-c5ccc(C(=O)c6ccc(*)cc6)cc5)cc4)cc3)cc2)cc1` (repeat unit), 186.00 °C.
Molecule `*Oc1ccc(C(C)(C)c2ccc(Oc3ccc(C(=O)c4ccc(C(=O)c5ccc(*)c(C(F)(F)F)c5)cc4)cc3C(F)(F)F)cc2)cc1` (repeat unit) had a glass transition temperature of 171.00 °C.
For the molecule `*Oc1ccc(C(C)(C)c2ccc(Oc3ccc(C(=O)c4ccc(C(C)(C)c5ccc(C(=O)c6ccc(*)cc6)cc5)cc4)cc3)cc2)cc1` (repeat unit), the glass transition temperature was 171.00 °C.
The result for `*Oc1ccc(C(C)(C)c2ccc(Oc3ccc(C(=O)c4ccc(Oc5ccc(C(=O)c6ccc(*)cc6)cc5)cc4)cc3)cc2)cc1` (repeat unit) reads 162.00 °C; that for `*Oc1ccc(C(C)(C)c2ccc(Oc3ccc(C(=O)c4ccc(P(=O)(c5ccccc5)c5ccc(C(=O)c6ccc(*)cc6)cc5)cc4)cc3)cc2)cc1` (repeat unit), 195.00 °C.
Molecule `*Oc1ccc(C(C)(C)c2ccc(Oc3ccc(C(=O)c4ccc5cc(C(=O)c6ccc(*)cc6)ccc5c4)cc3)cc2)cc1` (repeat unit) registered a glass transition temperature of 185.00 °C.
`*Oc1ccc(C(C)(C)c2ccc(Oc3ccc(C(O)C(O)c4ccc(*)cc4)cc3)cc2)cc1` (repeat unit) yielded a glass transition temperature of 151.00 °C.
As to `*Oc1ccc(C(C)(C)c2cccc(C(C)(C)c3ccc(Oc4ccc(C(=O)Nc5ccc(NC(=O)c6ccc(*)cc6)cc5)cc4)cc3)c2)cc1` (repeat unit), the glass transition temperature was 154.00 °C.
The value for `*Oc1ccc(C2(c3ccc(Oc4ccc(C(=O)c5ccc(*)cc5)cc4)c(C)c3)CCC3CCCCC3C2)cc1C` (repeat unit) was 201.00 °C; that for `*Oc1ccc(NC(=O)c2ccc(Oc3ccc(C(C)(C)c4ccc(C(C)(C)c5ccc(Oc6ccc(C(=O)Nc7ccc(*)cc7)cc6)cc5)cc4)cc3)cc2)cc1` (repeat unit) was 174.00 °C.
Molecule `*Oc1ccc(NC(=O)c2ccc(Oc3ccc(C(C)(C)c4ccc(C(C)(C)c5ccc(Oc6ccc(C(=O)Nc7ccc(Oc8ccc(-c9ccc(*)cc9)cc8)cc7)cc6)cc5)cc4)cc3)cc2)cc1` (repeat unit) had a glass transition temperature of 177.00 °C.
In turn, `*Oc1ccc(NC(=O)c2ccc(Oc3ccc(C(C)(C)c4cccc(C(C)(C)c5ccc(Oc6ccc(C(=O)Nc7ccc(Oc8ccc(-c9ccc(*)cc9)cc8)cc7)cc6)cc5)c4)cc3)cc2)cc1` (repeat unit) showed a glass transition temperature of 167.00 °C.
With `*Oc1ccc(Oc2ccc(NC(=O)c3ccc(Oc4ccc(C(C)(C)c5ccc(C(C)(C)c6ccc(Oc7ccc(C(=O)Nc8ccc(*)cc8)cc7)cc6)cc5)cc4)cc3)cc2)cc1` (repeat unit), the glass transition temperature worked out at 165.00 °C.
In turn, `*Oc1ccc(P(C)(=O)c2ccc(Oc3ccc(C(c4ccc(*)cc4)(C(F)(F)F)C(F)(F)F)cc3)cc2)cc1` (repeat unit) yielded a glass transition temperature of 208.00 °C.
`*Oc1ccc(P(C)(=O)c2ccc(Oc3ccc(C(c4ccccc4)(c4ccc(*)cc4)C(F)(F)F)cc3)cc2)cc1` (repeat unit) had a glass transition temperature of 229.00 °C.
Take `*Oc1ccc(S(=O)(=O)c2ccc(Oc3ccc(/C=C/c4ccc(*)cc4)cc3)cc2)cc1` (repeat unit): the glass transition temperature worked out at 234.50 °C.
In turn, `*Oc1ccc(S(=O)(=O)c2ccc(Oc3ccc(/C=N/N=C/c4ccc(*)cc4)cc3)cc2)cc1` (repeat unit) returned a glass transition temperature of 151.00 °C.
In the case of `*Oc1ccc(S(=O)(=O)c2ccc(Oc3ccc(/C=N/c4ccc(Oc5ccc(-c6ccc(Oc7ccc(/N=C/c8ccc(*)cc8)cc7)cc6)cc5)cc4)cc3)cc2)cc1` (repeat unit), the glass transition temperature was 127.00 °C.
Turning to `*Oc1ccc(S(=O)(=O)c2ccc(Oc3ccc(/N=C/c4ccc(*)cc4)cc3)cc2)cc1` (repeat unit), the glass transition temperature turned out to be 110.00 °C.
In turn, `*Oc1ccc(S(=O)(=O)c2ccc(Oc3ccc(NC(=O)c4ccc(Oc5ccc(C(C)(C)c6cccc(C(C)(C)c7ccc(Oc8ccc(C(=O)Nc9ccc(*)cc9)cc8)cc7)c6)cc5)cc4)cc3)cc2)cc1` (repeat unit) gave a glass transition temperature of 167.00 °C.
The result for `*Oc1ccc(S(=O)c2ccc(Oc3ccc(/C=N/N=C/c4ccc(*)cc4)cc3)cc2)cc1` (repeat unit) reads 151.00 °C.
Molecule `*Oc1cccc(NC(=O)c2ccc(Oc3ccc(C(C)(C)c4cccc(C(C)(C)c5ccc(Oc6ccc(C(=O)Nc7ccc(*)cc7)cc6)cc5)c4)cc3)cc2)c1` (repeat unit) gave a glass transition temperature of 147.00 °C.
Molecule `*Oc1cccc2ccc(Oc3ccc(NC(=O)c4ccc(Oc5ccc(C(C)(C)c6cccc(C(C)(C)c7ccc(Oc8ccc(C(=O)Nc9ccc(*)cc9)cc8)cc7)c6)cc5)cc4)cc3)cc12` (repeat unit) gave a glass transition temperature of 139.00 °C.
In turn, `*c1ccc(Oc2ccc(-c3nnc(*)o3)cc2)cc1` (repeat unit) had a glass transition temperature of 240.00 °C.
`*c1ccc(Oc2ccc(-n3c(=O)c4c(Oc5ccc(OCCCCCCCC)cc5)c5c(=O)n(*)c(=O)c5c(Oc5ccc(OCCCCCCCC)cc5)c4c3=O)cc2)cc1` (repeat unit) returned a glass transition temperature of 234.50 °C.
Turning to `*c1ccc(Oc2ccc(-n3nc(-c4ccccc4)cc3-c3ccc(-c4cc(-c5ccccc5)nn4*)cc3)cc2)cc1` (repeat unit), the glass transition temperature turned out to be 260.00 °C.
Take `*c1ccc(Oc2ccc(-n3nccc3-c3ccc(-c4ccnn4*)cc3)cc2)cc1` (repeat unit): the glass transition temperature amounted to 243.00 °C.
In turn, `*c1ccc(Oc2ccc(C(=O)c3ccc(Oc4ccc(C5(*)c6ccccc6C(=O)N5C)cc4)cc3)cc2)cc1` (repeat unit) had a glass transition temperature of 245.00 °C.
The molecule `*c1ccc(Oc2ccc(C(=O)c3cccc(C(=O)c4ccc(Oc5ccc(-c6c7c(c(*)c8ccccc68)C(=O)N(CCCCCCCCCCCC)C7=O)cc5)cc4)c3)cc2)cc1` (repeat unit) registered a glass transition temperature of 140.00 °C.
The result for `*c1ccc(Oc2ccc(C(C)(C)c3cccc(C(C)(C)c4ccc(Oc5ccc(-n6c(=O)c7cc8c(=O)n(*)c(=O)c8cc7c6=O)cc5)cc4)c3)cc2)cc1` (repeat unit) reads 249.47 °C.
For `*c1ccc(Oc2ccc(C(C)(C)c3ccccc3)cc2)c(N2C(=O)c3ccc(-c4ccc5c(c4)C(=O)N(*)C5=O)cc3C2=O)c1` (repeat unit), the glass transition temperature was 275.00 °C.
In turn, `*c1ccc(Oc2ccc(C(C)(c3ccccc3)c3ccc(Oc4ccc(-c5nc(-c6ccccn6)nnc5*)cc4)cc3)cc2)cc1` (repeat unit) yielded a glass transition temperature of 232.00 °C.
The result for `*c1ccc(Oc2ccc(C(c3ccc(Oc4ccc(-c5ncc(*)o5)cc4C(F)(F)F)cc3)(C(F)(F)F)C(F)(F)F)cc2)c(C(F)(F)F)c1` (repeat unit) reads 205.00 °C; that for `*c1ccc(Oc2ccc(C(c3ccc(Oc4ccc(-c5nnc(*)n5-c5cccc(C(F)(F)F)c5)cc4)cc3)(C(F)(F)F)C(F)(F)F)cc2)cc1` (repeat unit), 185.00 °C.
Consider `*c1ccc(Oc2ccc(C(c3ccc(Oc4ccc(-n5c(=O)c6cc7c(=O)n(*)c(=O)c7cc6c5=O)cc4C(F)(F)F)cc3)(C(F)(F)F)C(F)(F)F)cc2)c(C(F)(F)F)c1` (repeat unit), for which the glass transition temperature is 253.00 °C.
`*c1ccc(Oc2ccc(C(c3ccccc3)(c3ccccc3)c3ccc(Oc4ccc(-c5nc(*)nc(-c6ccccc6)n5)cc4)cc3)cc2)cc1` (repeat unit): the glass transition temperature amounted to 261.00 °C.
